According to article PMC10498496, “Design and Synthesis of Poly(2,2′-Bipyridyl) Ligands for Induction of Cell Death in Cancer Cells: Control of Anticancer Activity by Complexation/Decomplexation with Biorelevant Metal Cations” (Inorganic Chemistry, 2023):
Where two headings read alike, the source gives them in different places. Blank lines part the entries; values can stand above or below the molecule they belong to. Numbered stars: 1 amine (or outer) side, 2 acyl side, 3 side chain; on linkers, the order of the positions; unused ones are H or OH. Bridge positions count the residues as written; N and C are the ends. Square brackets hold non-standard residues; d marks the D form. Peptide text beside a SMILES is read from it. I, II: the chains in the order shown. Actinocin(9to1) = Cc1c2oc3c(C)ccc(C(=O)[*:1])c3nc-2c(C(=O)[*:2])c(N)c1=O; NMeV = CN[C@H](C(=O)O)C(C)C; Sar = CNCC(=O)O

Columns and labels:
U937 cells = assay: MTT assay, cytotoxicity against U937 cells; format: cell-based, human; conditions: Homo sapiens, read-out: EC50 against U937
Method: (§1) Second, we conducted the quantitative evaluation of the cytotoxicity of 1, 2, and 3 against various cancer cell lines by an MTT (3-(4,5-dimethylthiazol-2-yl)-2,5-diphenyltetrazolium bromide) assay. Jurkat, MOLT-4 (these two cell lines are human T-lymphocyte leukemia cells), and U937 (human lymphoma) cells (1.5 × 10^4 cells/well) were incubated in RPMI 1640 medium containing 10% FBS (fetal bovine serum) containing 1, 2, and 3 (0–25 μM) at 37 °C for 24 h, and then treated with the MTT reagent. A549 (human alveolar adenocarcinoma) and IMR-90 (normal human fetal lung fibroblast as model of normal cells) cells (1.5 × 10^4 cells/well) were incubated in DMEM (low glucose) with 10% FBS containing 1, 2, and 3 (0–25 μM), HeLa S3 (human epithelial carcinoma cells) cells (1.5 × 10^4 cells/well) were incubated in MEM with 10% FBS containing these ligands (0–25 μM) for 24 h at 37 °C and then treated with the MTT reagent.
(§2) • (a) Cytotoxic study. Jurkat cells, MOLT-4 cells, and U937 cells (1.5 × 10^5 cells/mL per one well) were incubated in 10% FBS RPMI 1640 medium containing 1 (0–25 μM), 2 (0–25 μM) , 3, cisplatin (0–100 μM), and actinomycin D (0–10 μM) under 5% CO2 at 37 °C for 24 h on 96 well plates (Watson), 0.5% MTT (3-(4,5-dimethyl-2-thiazolyl)-2,5-diphenyl-2H-tetrazolium bromide) reagent in PBS (10 μL) was then added to the cells. After incubation at 37 °C for 4 h, a formazan lysis solution (10% SDS in 0.01 N HCl) (100 μL) was added and the resulting solution was incubated overnight under the same conditions, followed by the measurement of absorbance at 570 nm with a microplate reader (BIO-RAD).

A549 cells = assay: MTT assay, cytotoxicity against A549 cells; format: cell-based, human; conditions: Homo sapiens, A549, 37 °C, treated for 24 h
Method: as §1
(§3) HeLa S3 cells and A549 cells in MEM and DMEM medium with 10% FBS (1.5 × 10^5 cells/mL per one well) were seeded in to 96 well plates and incubated for 24 h, MTT assay of poly(bpy) ligands (0–25 μM), cisplatin (0–100 μM), and actinomycin D (0–10 μM) was performed according to the same procedure described above.

Jurkat cells [1] = assay: MTT assay in the presence of the caspase inhibitor Z-VAD-fmk; format: cell-based, human; conditions: Z-VAD-fmk 15 μM 3 h, then compound 12.5 μM for 24 h
From the text: We, therefore, selected Jurkat cells to study the cell death mechanism in detail, in this work. Programmed cell death (PCD) is generally classified into several types such as apoptosis, necroptosis, paraptosis, autophagic cell death, and so on.[30]−[33] We hypothesized that 1 and 2 function as inducers of apoptosis, which is a type of PCD in cancer cells, based on the morphological change of Jurkat cells observed in Figure 1 and mechanism of chelation therapy proposed in the previous studies.[11]−[19] It is known that the caspases family are cysteine proteases that play important roles in apoptosis and necroptosis.[38] Therefore, the effect of Z-VAD-fmk, which is known as one of general caspase inhibitors, on the cell death induced by 1 and cisplatin was examined.
Figure 3 Effect of Z-VAD-fmk on the cell death in Jurkat cells induced by 1. Jurkat cells were incubated in RPMI in the presence of Z-VAD-fmk (15 μM) for 3 h and then treated with (a) 1 (1 μM) and (b) cisplatin (50 μM) for 24 h. Asterisks indicate significant difference with *(P ≤ 0.05).
To investigate the mechanism responsible for the BAPTA-AM-induced cell death in Jurkat cells, Jurkat cells were incubated with Z-VAD-fmk (15 μM) for 3 h, and then cells were treated with BAPTA-AM (12.5 μM) for 24 h followed by an MTT assay.
IMR-90 cells in DMEM medium with 10% FBS (1.5 × 10^5 cells/mL) were seeded in to 96 well plates and incubated for 24 h at 37 °C, MTT assays with poly(bpy) ligands and their metal complexes (0–100 μM), cisplatin (0–100 μM), and actinomycin D (0–10 μM) were performed following the same procedure described above. These experiments were carried out at least three times. • (b) MTT assay in the presence of a caspase inhibitor. […]

MOLT-4 cells [2] = assay: MTT assay, cytotoxicity against MOLT-4 cells; format: cell-based, human; conditions: Homo sapiens, read-out: EC50 against MOLT-4
Method: as §1, §2

Jurkat cells [3] = assay: MTT assay of Jurkat cells, effect of metal ions and incubation time on cytotoxicity of ligands; format: cell-based, human
Method: Next, we examined the effect of complexation of 1, 2, BAPTA, and BAPTA-AM with metal ions such as Cu(NO3)2, Zn(NO3)2, FeSO4, Co(NO3)2, and NiSO4 on their cytotoxicity against Jurkat cells. Mixture of ligands and metal ions were incubated for 1 h at 37 °C, and added to Jurkat cells for incubation for 12, 24, and 48 h at [ligand] = 0.78–25 μM and [M^2+] = 1.71–37.5 μM ([ligand]: [M^2+] = 1:1.5). After that, MTT assays were carried out, as shown in Figure S3 of the Supporting Information.
(§4) IMR-90 cells in DMEM medium with 10% FBS (1.5 × 10^5 cells/mL) were seeded in to 96 well plates and incubated for 24 h at 37 °C, MTT assays with poly(bpy) ligands and their metal complexes (0–100 μM), cisplatin (0–100 μM), and actinomycin D (0–10 μM) were performed following the same procedure described above. These experiments were carried out at least three times. • (b) MTT assay in the presence of a caspase inhibitor. Jurkat cells were pre-treated with Z-VAD-fmk (15 μM) for 3 h, a general caspases inhibitor, followed by the treatment with 1 (1 μM), BABTA-AM (12.5 μM) and cisplatin (50 μM), respectively, for 24 h, and then MTT assay was carried out as described above. • (c) For evaluation of the effect of metal ions on the cytotoxicity of 1, 2, BAPTA, and BAPTA-AM, these ligands were incubated with metal ions such as Cu(NO3)2, Zn(NO3)2, FeSO4, Co(NO3)2, and NiSO4 for 1 h, respectively, and added to Jurkat cells. The whole mixtures were incubated for 12, 24, and 48 h at [ligand] = 0.78–25 μM and at [M^2+] = 1.71–37.5 μM ([ligand]/[M^2+] = 1:1.5). The MTT assays were conducted as described above.

HeLa S3 cells = assay: MTT assay, cytotoxicity against HeLa S3 cells; format: cell-based, human; conditions: Homo sapiens
Method: Second, we conducted the quantitative evaluation of the cytotoxicity of 1, 2, and 3 against various cancer cell lines by an MTT (3-(4,5-dimethylthiazol-2-yl)-2,5-diphenyltetrazolium bromide) assay. Jurkat, MOLT-4 (these two cell lines are human T-lymphocyte leukemia cells), and U937 (human lymphoma) cells (1.5 × 10^4 cells/well) were incubated in RPMI 1640 medium containing 10% FBS (fetal bovine serum) containing 1, 2, and 3 (0–25 μM) at 37 °C for 24 h, and then treated with the MTT reagent. […]
as §3

IMR-90 cells = assay: MTT assay, cytotoxicity against IMR-90 cells (model of normal cells); format: cell-based, human; conditions: Homo sapiens, read-out: EC50 against IMR-90
Method: as §1, §4

Jurkat cells [4] = assay: MTT assay, cytotoxicity against Jurkat cells; format: cell-based, human; conditions: Homo sapiens, Jurkat
Method: as §1, §2

MOLT-4 cells [5] = system: MOLT-4 cells; set-up: method as in earlier work; conditions: ref 52 (Morita et al., Oncotarget 2013); read-out: EC50, cytotoxicity against MOLT-4 cells; cited from earlier work
[6] = U-937, MTT, 37 °C, treated for 24 h
[7] = MOLT-4, MTT, 37 °C, treated for 24 h
[8] = Homo sapiens, Jurkat, no metal, incubation 48 h (Figure 9, S4), read-out: EC50 against Jurkat cells, metal-free ligand
[9] = HeLa S3, MTT, 37 °C, treated for 24 h, read-out: EC50 against HeLa S3 (converted)
[10] = IMR-90, MTT, 37 °C, treated for 24 h
[11] = MTT, 37 °C, treated for 24 h, read-out: EC50 against Jurkat (converted)

SMILES: CC(=O)OCOC(=O)CN(CC(=O)OCOC(C)=O)c1ccccc1OCCOc1ccccc1N(CC(=O)OCOC(C)=O)CC(=O)OCOC(C)=O [BAPTA-AM, reference compound]
- EC50 (U937 cells; [6]): 7.1 ± 0.4 µM
- EC50 (A549 cells): > 50 µM
- cell viability of Jurkat cells after preincubation with Z-VAD-fmk (Jurkat cells [1]): considerably restored
- EC50 (MOLT-4 cells [2]; [7]): 13.2 ± 0.2 µM
- EC50 (Jurkat cells [3]; Homo sapiens, Jurkat, no metal, incubation 24 h (Figure S4), read-out: EC50 against Jurkat cells, ligand alone): 8.6 µM
- EC50 (Jurkat cells [3]; [8]): 7.9 µM
- EC50 (HeLa S3 cells; [9]): > 50 µM
- EC50 (IMR-90 cells; [10]): > 50 µM
- EC50 (Jurkat cells [4]; [11]): 8.6 ± 0.3 µM

SMILES: O=[N+]([O-])[O-].O=[N+]([O-])[O-].[Co+2] [Co^2+, Co(NO3)2]
- EC50 (Jurkat cells [3]; no ligand, incubation 48 h (Figure 9a), read-out: EC50 of ligand-free metal ion against Jurkat cells): 13 µM

SMILES: c1ccc(CN(CCN(Cc2ccccn2)Cc2ccccn2)Cc2ccccn2)nc1 [TPEN, N,N,N′,N′-tetra(2-pyrydylmethyl)ethylene diamine]
- EC50 (MOLT-4 cells [5]): ~8 µM

SMILES: Cc1c2oc3c(C)ccc(C(=O)N[C@@H]4C(=O)N[C@H](C(C)C)C(=O)N5CCC[C@H]5C(=O)N(C)CC(=O)N(C)[C@@H](C(C)C)C(=O)O[C@@H]4C)c3nc-2c(C(=O)N[C@@H]2C(=O)N[C@H](C(C)C)C(=O)N3CCC[C@H]3C(=O)N(C)CC(=O)N(C)[C@@H](C(C)C)C(=O)O[C@@H]2C)c(N)c1=O [actinomycin D, reference compound] (I: T[dV]P[Sar][NMeV] / II: T[dV]P[Sar][NMeV]; ester I:1-I:C, II:1-II:C; linker I:N-II:N via Actinocin(9to1))
- EC50 (U937 cells; U-937, 24 h): 0.051 µM
- EC50 (MOLT-4 cells [2]; MOLT-4, 24 h): 0.003 µM
- EC50 (HeLa S3 cells; HeLa S3, 24 h, read-out: EC50 against HeLa S3): > 10 µM
- EC50 (IMR-90 cells; IMR-90, 24 h): 53 ± 2.6 µM
- EC50 (Jurkat cells [4]; 24 h, read-out: EC50 against Jurkat): 0.005 µM

- melting point: 135 to 136 °C
SMILES: c1ccc(-c2ccc(OCc3cccc(COc4ccc(-c5ccccn5)nc4)c3)cn2)nc1 [compound 2, 1,3-Bis(([2,2′-Bipyridin]-5-yloxy)methyl)benzene]
- EC50 (U937 cells; [6]): 0.59 ± 0.33 µM
- EC50 (A549 cells): 9.5 ± 1.2 µM
- EC50 (MOLT-4 cells [2]; [7]): 0.64 ± 0.55 µM
- EC50 (Jurkat cells [3]; Homo sapiens, Jurkat, no metal, incubation 12 h (Figure 9), read-out: EC50 against Jurkat cells, metal-free ligand): ~2 µM
- EC50 (Jurkat cells [3]; [8]): ~0.1 µM
- EC50 (HeLa S3 cells; [9]): 15 ± 1.34 µM
- EC50 (IMR-90 cells; [10]): > 100 µM
- EC50 (Jurkat cells [4]; [11]): 0.77 ± 0.56 µM

- melting point: 85 to 87 °C
SMILES: c1ccc(COc2ccc(-c3ccccn3)nc2)cc1 [compound 3, 5-(Benzyloxy)-2,2′-bipyridine]
- EC50 (U937 cells; [6]): 5.6 ± 0.77 µM
- EC50 (A549 cells): 11 ± 0.55 µM
- EC50 (MOLT-4 cells [2]; [7]): 8.7 ± 0.89 µM
- EC50 (HeLa S3 cells; [9]): 15 ± 0.37 µM
- EC50 (IMR-90 cells; [10]): 75 ± 0.1 µM
- EC50 (Jurkat cells [4]; [11]): 13 ± 0.34 µM
